Assay results published in patent US11028087B2, “2,6-disubstituted-9-cyclopentyl-9H-purines, use thereof as medicaments, and pharmaceutical compositions” (UNIVERZITA PALACKEHO V OLOMOUCI, priority 2017, dated 2021).

Key:
[1] = test system: ERK1/2, STAT5 and STAT3 phosphorylation in MV4-11 cells; test: Immunoblotting of signaling downstream of FLT3 in MV4-11 cells; format: cell-based; conditions: 1 hour (FIG. 3)
Description: (§1) To confirm kinase-inhibitory activity of novel compounds in cells, MV4-11 cells with FLT3-ITD and EOL-1 cells expressing FIP1L1-PDGFRA fusion protein were analyzed upon 1 hour treatment. Treated cells were harvested by centrifugation and homogenized in an extraction buffer (10 mM HEPES pH 7.4, 1 mM EDTA, 1 mM EGTA, 5 mM KC, 1.5 mM MgCl2, 0.5% NP40, supplemented with 1 mM DTT, 1 mM NaF, 0.1 mM Na3VO4, 1 mM PMSF, 0.5 μg/ml Leupeptin, 2 μg/ml Aprotinin) on ice for […]. The homogenates were clarified by centrifugation at 10,000 g for 30 min at 4° C., proteins were quantified by the Bradford method and then diluted to the same concentration. […] of total proteins were separated by SDS-polyacrylamide gel electrophoresis and transferred onto nitrocellulose membranes. Membranes were blocked in 5% BSA in TBS with 0.1% Tween 20 and probed overnight with specific antibodies for FLT3 (clone 8F2), phospho-FLT3 Y589/591 (30D4), phospho-FLT3 Y591 (33G6), phospho-FLT3 Y842 (10A8), phospho-FLT3 Y969 (C24D9), PDGFRA (D1E1E), phospho-PDGFRA Y849/PDGFRB Y857 (C43E9), phospho-PDGFRA Y1018, p44/42 MAPK (ERK1/2), phospho-p44/42 MAPK (ERK1/2) (Thr202/Tyr204), STAT5, Phospho-STAT5(Tyr694), STAT3 (79D7), phospho-STAT3 (Tyr705) (D3A7), MEK1/2 (D1A5), phospho-MEK1/2 (Ser217/221) purchased from Cell Signaling, USA, α-tubulin (DM1A, Sigma Aldrich, USA) and PCNA (PC-10, gifted by Dr. B. Vojtesek). […]

[2] = test system: ERK1/2, STAT5 and STAT3 phosphorylation in EOL-1 cells; test: Immunoblotting of signaling downstream of PDGFR in EOL-1 cells; format: cell-based; conditions: 1 hour (FIG. 4)
Description: as §1

[3] = test system: FLT3 phosphorylation in MV4-11 xenograft; test: MV4-11 xenograft target modulation, pFLT3 immunoblot; format: in vivo, mice
Description: (§2) Female athymic nu/nu mice (8 weeks old) were subcutaneously implanted with 5×10^6 MV4-11 cells in 1:1 mixture with Matrigel (High concentration basement membrane Matrigel, Corning) into the hind flank on day 0. Tumors were allowed to growth to the volume of 500-800 mm^3. Body weight and tumor size were recorded 3 times a week. Mice were randomized to treatment groups, 4 to 5 mice each, for target modulation studies.
(§3) Mice were sacrificed at 2 time points (2 hours and 24 hours) after treatment. Tumors were resected and mechanically disintegrated. Cells were washed twice with PBS (lx), then lysed in ice-cold lysis buffer (10 mM HEPES pH 7.4, 1 mM EDTA, 1 mM EGTA, 5 mM KCl, 1.5 mM MgCl2) supplemented with protease and phosphatase inhibitors (10 mM β-glycerolphosphate; 1 mM NaF; 0.1 mM Na3VO4; 0.1 mM PMSF; 10 μg/ml Leupeptin; 2 μg/ml Aprotinin; 1 mM DTT) and cleared by centrifugation. Samples (50 μg of total protein amount) were separated on SDS-PAGE, followed by transfer of the separated proteins to nitrocellulose membrane.

[4] = target: T1, CDK7Cyclin H/MAT1 (Homo sapiens, UniProt P50613); test: Kinase inhibition assay with [γ-33P]ATP; format: biochemical; conditions: (YSPTSPS)2KK peptide, 1.5 μM ATP; read-out: IC50 values (μM) CDK7
T1 construct: purchased ProQinase GmbH

[5] = test system: STAT5 phosphorylation in MV4-11 xenograft; test: MV4-11 xenograft target modulation, pSTAT5 immunoblot; format: in vivo, mice; conditions: single dose 10 mg/kg intraperitoneal, after 24 hours
Description: as §2, §3

[6] = test system: FLT3 (FLT3-ITD) in MV4-11 cells; test: Immunoblotting of FLT3 phosphorylation in MV4-11 cells; format: cell-based; conditions: MV4-11 FLT3-ITD cells, 1 hour treatment, immunoblotting (FIG. 1)
Description: Cells were exposed for 1 hour to the indicated concentrations of 264 or 270 and then levels of phosphorylations at specific tyrosine residues of FLT3 were analyzed.
To confirm kinase-inhibitory activity of novel compounds in cells, MV4-11 cells with FLT3-ITD and EOL-1 cells expressing FIP1L1-PDGFRA fusion protein were analyzed upon 1 hour treatment. Treated cells were harvested by centrifugation and homogenized in an extraction buffer (10 mM HEPES pH 7.4, 1 mM EDTA, 1 mM EGTA, 5 mM KC, 1.5 mM MgCl2, 0.5% NP40, supplemented with 1 mM DTT, 1 mM NaF, 0.1 mM Na3VO4, 1 mM PMSF, 0.5 μg/ml Leupeptin, 2 μg/ml Aprotinin) on ice for […]. The homogenates were clarified by centrifugation at 10,000 g for 30 min at 4° C., proteins were quantified by the Bradford method and then diluted to the same concentration. […] of total proteins were separated by SDS-polyacrylamide gel electrophoresis and transferred onto nitrocellulose membranes. […]

T1 sequence (P50613 whole entry): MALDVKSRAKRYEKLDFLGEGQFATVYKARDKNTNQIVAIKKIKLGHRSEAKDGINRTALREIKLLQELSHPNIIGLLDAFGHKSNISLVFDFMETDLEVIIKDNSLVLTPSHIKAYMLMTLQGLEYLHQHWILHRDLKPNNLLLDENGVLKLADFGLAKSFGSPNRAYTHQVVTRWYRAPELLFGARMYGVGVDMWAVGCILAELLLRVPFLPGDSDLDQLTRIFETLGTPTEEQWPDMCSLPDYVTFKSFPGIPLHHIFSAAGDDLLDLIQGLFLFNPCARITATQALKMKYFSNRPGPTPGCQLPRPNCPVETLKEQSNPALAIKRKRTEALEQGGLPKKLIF
T1 sequence (P51946 whole entry partner): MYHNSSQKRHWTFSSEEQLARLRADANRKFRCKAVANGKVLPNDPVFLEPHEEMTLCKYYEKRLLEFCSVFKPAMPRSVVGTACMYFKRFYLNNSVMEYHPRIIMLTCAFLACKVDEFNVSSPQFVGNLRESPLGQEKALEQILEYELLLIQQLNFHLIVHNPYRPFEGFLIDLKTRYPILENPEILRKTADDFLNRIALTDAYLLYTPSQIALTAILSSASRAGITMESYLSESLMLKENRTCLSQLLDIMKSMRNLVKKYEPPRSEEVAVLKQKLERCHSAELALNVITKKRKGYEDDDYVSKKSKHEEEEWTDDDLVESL
T1 sequence (P51948 whole entry partner): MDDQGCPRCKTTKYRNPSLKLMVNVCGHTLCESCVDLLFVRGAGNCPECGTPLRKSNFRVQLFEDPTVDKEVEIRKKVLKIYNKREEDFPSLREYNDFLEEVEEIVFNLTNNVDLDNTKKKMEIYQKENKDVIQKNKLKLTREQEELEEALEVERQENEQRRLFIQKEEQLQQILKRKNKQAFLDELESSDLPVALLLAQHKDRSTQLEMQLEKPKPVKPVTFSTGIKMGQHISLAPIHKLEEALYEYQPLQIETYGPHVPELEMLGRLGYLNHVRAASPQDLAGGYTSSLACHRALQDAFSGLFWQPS

| Structure (SMILES) | phosphorylation of ERK1/2, STAT5 and STAT3 [1] | phosphorylation of ERK1/2, STAT5 and STAT3 [2] | inhibition of pFLT3 in tumor ([3]; nu/nu mice, single dose 10 mg/kg intraperitoneal, 2 hours after administration) [%] | pFLT3 level in tumor at 24 hours ([3]; single dose 10 mg/kg (264 intraperitoneal, Quizartinib oral gavage), 24 hours) | IC50 [4] [µM] | reduction of pSTAT5 level in tumor [5] | phosphorylation of tyrosine residues of FLT3 receptor kinase (including Y589, Y591, Y742) [6] |
| --- | --- | --- | --- | --- | --- | --- | --- |
| NC1CCC(Nc2nc(Nc3ccc(CN4CCOCC4)cc3)c3ncn(C4CCCC4)c3n2)CC1 (centres unmarked) [Compound 264] | reduced phosphorylation | reduced phosphorylation | 95 | the inhibition sustained 24 hours | 0.178 | more than 95% | cellular FLT3 dephosphorylation |
| NCCCCNc1nc(Nc2ccc(CN3CCOCC3)cc2)c2ncn(C3CCCC3)c2n1 [Compound 270] | reduced phosphorylation | reduced phosphorylation | – | – | – | – | cellular FLT3 dephosphorylation |
| CN1CC2(C1)CN(c1ccc(Nc3nc(NC4CCC(O)CC4)nc4c3ncn4C3CCCC3)cc1)C2 (centres unmarked) [Compound 7] | – | – | – | – | 0.197 | – | – |
